Data on 2 molecules can be found in PubChem BioAssay (NCI).

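Briefly, cells in 96-well plates were exposed to five compound concentrations for 48 h, and endpoints were estimated by linear interpolation. GI50 is the concentration that inhibits growth by half. TGI marks complete inhibition of growth.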

Among the test systems are SR leukemia; NCI/ADR-RES ovarian; HOP-92 NSCLC; OVCAR-4 ovarian; U251 CNS; EKVX NSCLC; SN12C renal; HCT-15 colon; NCI-H226 lung; HL-60(TB) leukemia.
What all share (experiment): NCI-60 cell line screen, 48 h

For `O=[As]c1ccc(C(=O)c2ccc(Oc3ccccc3)cc2)cc1` (stereo not given), the GI50 is less than 0.0168 µM in the test with SR leukemia; 0.0378 µM in the test with NCI/ADR-RES ovarian; 0.159 µM in the test on HOP-92 NSCLC; 0.0469 µM with OVCAR-4 ovarian; 0.0181 µM in the test on U251 CNS; 0.0688 µM in the test on EKVX NSCLC. Further, the GI50 is 0.0407 µM in the test on SN12C renal, 0.0362 µM in the test with HCT-15 colon, 0.106 µM in the test with NCI-H226 lung and 0.119 µM with HL-60(TB) leukemia. Besides, the TGI with SR leukemia stood at 0.0736 µM; with NCI/ADR-RES ovarian, 0.143 µM; in the test on HOP-92 NSCLC, 0.361 µM; in the test with OVCAR-4 ovarian, 0.171 µM; with U251 CNS it was 0.0586 µM; with EKVX NSCLC it was 0.205 µM. Further, the TGI in the test on SN12C renal was 0.148 µM; with HCT-15 colon, 0.15 µM; in the test with NCI-H226 lung, 0.226 µM; in the test on HL-60(TB) leukemia it was 0.463 µM.

Take `O=C(CC(=O)c1ccccc1)c1ccccc1`: the GI50 in the test on SR leukemia is 11.7 µM; in the test on NCI/ADR-RES ovarian it was 16.8 µM; in the test on HOP-92 NSCLC it was 15.8 µM; with OVCAR-4 ovarian it was 27.9 µM; with U251 CNS, 2.15 µM; in the test on EKVX NSCLC, 11.2 µM. The GI50 with SN12C renal was 52.8 µM; in the test with HCT-15 colon, 2.06 µM; in the test with NCI-H226 lung it was 37.2 µM; in the test on HL-60(TB) leukemia it was 12.3 µM. The TGI was greater than 100 µM with SR leukemia; 44 µM in the test on NCI/ADR-RES ovarian; 51.3 µM with HOP-92 NSCLC; greater than 100 µM in the test with OVCAR-4 ovarian; 8.05 µM in the test with U251 CNS; 38 µM in the test on EKVX NSCLC. The TGI in the test on SN12C renal is greater than 100 µM; in the test with HCT-15 colon, 6.82 µM; in the test with NCI-H226 lung, greater than 100 µM; in the test on HL-60(TB) leukemia, greater than 100 µM.
